Data set [1] has as its system HIV-1 (IIIB) in MT-4 cells. Nature of the data set: MT-4 HIV Assay. In kind it is cell-based. On the procedure: Compounds were tested in a high-throughput 384-well assay format for their ability to inhibit the replication of HIV-1 (IIIB) in MT-4 cells. Compounds were serially diluted (1:3) in DMSO on 384-well polypropylene plates and further diluted 200-fold into complete RPMI media (10% FBS, 1% P/S) using the Biotek Micro Flow and Agilent ECHO acoustic dispenser. Each plate contained up to 8 test compounds, with negative (No Drug Control) and 5 μM AZT positive controls. MT-4 cells were pre-infected with 10 μL of either RPMI (mock-infected) or a fresh 1:250 dilution of an HIV-1 (IIIB) concentrated virus stock. Infected and uninfected MT-4 cells were further diluted in complete RPMI media and added to each plate using a Micro Flow dispenser. After 5 days incubation in a humidified and temperature controlled incubator (37° C.), Cell Titer Glo (Promega) was added to the assay plates to quantify the amount of luciferase. EC50 values were defined as the compound concentration that causes a 50% decrease in luminescence signal, and were calculated using a sigmoidal dose-response model to generate curve fits.

Data set [2] is described as follows: Kinetic Solubility Analysis (CLND). To be noted: 26 °C, kinetic from dmso stock. In kind it is physicochemical. The protocol:
Kinetic Solubility Analysis (CLND) Buffer Preparation:
0.1N HCl: Hydrochloric acid, 0.1N standardized solution.
1×PBS, 7.4: Phosphate Buffered Saline solution 10×, PBS 50 mL was added to approximately 450 mL HPLC grade H2O. The volume of the solution was then adjusted to 500 mL for a total dilution factor of 1:10 and a final PBS concentration of IX.
Kinetic Solubility from DMSO Stocks:
The final DMSO concentration is 1.0% and maximum theoretical compound concentration is 100 μM (assuming stock concentration of 10 mM). The filter plate was sealed. […] The collection plate was sealed for analysis. Filtrates were injected into the nitrogen detector for quantification.
The equimolar nitrogen response of the detector was calibrated using standards which spanned the dynamic range of the instrument from […] nitrogen. The filtrates were quantified with respect to this calibration curve. The calculated solubility values were corrected for background nitrogen present in the DMSO and the media used to prepare the samples.

Data set [3] is described as follows: Liver microsomal stability (rat). In kind it is in vitro ADME. To be noted: rat liver microsomes 0.5 mg/mL, 1 μM compound, NADPH-regenerating system, 37° C. On the procedure: (§1) Liver Microsomal Stability Protocol
(§2) Test compounds and one control compound (verapamil) were tested in 3 different species in duplicate sets.
(§3) Test compound concentration: 1 μM; Protein concentration: 0.5 mg/mL (for rat and human liver microsomes); Cofactor: NADPH-Regenerating system (NRS) solution. Time-points: 2, 12, 25, 45, and 65 minutes.
(§4) Reaction composition (in each incubation well) contains:
(§5) At an incubation temperature of 37° C., the reaction was started with addition of NADPH Regeneration System, at each time point, 25 μL of the reaction mixture was removed and added to a plate with 225 μL quenching solution (50% MeOH, 25% ACN, 25% H2O, and 200 nM labetalol as internal standard). After plates were vortexed, they were centrifuged for 30 minutes to remove proteins. About 100 μL supernatant was removed to a new plate and diluted with 150 μL water. About 20 μL of the mixture was injected into an LC/MS/MS system to monitor the compound's response. In vitro measured t1/2 was used to calculate Clint values.

Data set [4] in a line: Liver microsomal stability (human). In kind it is in vitro ADME. To be noted: human liver microsomes 0.5 mg/mL, 1 μM compound, NADPH-regenerating system, 37° C. On the procedure: as §1, §2, §3, §4, §5
Where [5] appears, read: Human immunodeficiency virus 1, MT4, 120 h, HIV-1 (IIIB) replication in MT-4 cells, 5 days incubation, Cell Titer Glo, read-out: EC50.
Where [6] appears, read: 0.1N HCl, pH 1, simulated gastric fluid, read-out: Solubility, HCl, pH 1.0, RT.
[7] abbreviates: PBS, pH 7.4, aqueous buffer, read-out: Solubility, PBS, pH 7.4, RT.

We go through eight compounds from US11052087B2, “Anti-HIV compounds” (priority 2018, dated 2021).

≈ marks a conversion by molar mass, not a printed value. Read-outs that look alike come from different tables or passages of the source.

As to `COC(=O)N[C@H](C(=O)N[C@@H](Cc1ccc(C#Cc2cnc(N3CC4CCC(C3)N4C3COC3)nc2)cc1)[C@H](CN(Cc1c(F)cc(-c2ccn(C(F)F)n2)cc1F)NC(=O)[C@@H](NC(=O)OC)C(C)(C)C(F)(F)F)OC(=O)[C@@H](N)C(C)C)C(C)(C)C(F)(F)F` [Example 8, (2S,3S)-1-(1-(4-(1-(difluoromethyl)-1H-pyrazol-3-yl)-2,6-difluorobenzyl)-2-((S)-4,4,4-trifluoro-2-((methoxycarbonyl)amino)-3,3-dimethylbutanoyl)hydrazinyl)-4-(4-((2-(8-(oxetan-3-yl)-3,8-diazabicyclo[3.2.1]octan-3-yl)pyrimidin-5-yl)ethynyl)phenyl)-3-((S)-4,4,4-trifluoro-2-((methoxycarbonyl)amino)-3,3-dimethylbutanamido)butan-2-yl L-valinate], in data set [1] (setting [5]), the concentration for a half-maximal effect (EC50) amounted to 102 nM. Besides, the solubility at 24 h in data set [2] (setting [6]) was 90 µM (≈ 113 µg/mL); in data set [2] (setting [7]), less than 1 µM.

Turning to `COC(=O)N[C@H](C(=O)N[C@@H](Cc1ccc(C#Cc2cnc(N3CC4CCC(C3)N4C3COC3)nc2)cc1)[C@H](CN(Cc1c(F)cc(-c2ccn(C(F)F)n2)cc1F)NC(=O)[C@@H](NC(=O)OC)C(C)(C)C(F)(F)F)OP(=O)(O)O)C(C)(C)C(F)(F)F` [Example 12, methyl ((5S,10S,11S,14S)-8-(4-(1-(difluoromethyl)-1H-pyrazol-3-yl)-2,6-difluorobenzyl)-16,16,16-trifluoro-15,15-dimethyl-11-(4-((2-(8-(oxetan-3-yl)-3,8-diazabicyclo[3.2.1]octan-3-yl)pyrimidin-5-yl)ethynyl)benzyl)-3,6,13-trioxo-10-(phosphonooxy)-5-(1,1,1-trifluoro-2-methylpropan-2-yl)-2-oxa-4,7,8,12-tetraazahexadecan-14-yl)carbamate], the “Rat. Pred. Cl. (L/H/kg)” value in data set [3] is 0.91 L/H/kg. Moreover, the “Human Pred Cl. (L/H/kg)” value in data set [4] is 0.47 L/H/kg. In addition, the values for the solubility at 24 h in data set [2] (setting [6]) and in data set [2] (setting [7]) were 13.1 µM (≈ 16.2 µg/mL) and 84.6 µM (≈ 105 µg/mL), respectively.

Take `COC(=O)N[C@H](C(=O)N[C@@H](Cc1ccc(C#Cc2cnc(N3CC4CCC(C3)N4C3COC3)nc2)cc1)[C@H](CN(Cc1c(F)cc(-c2ccn(C(F)F)n2)cc1F)NC(=O)[C@@H](NC(=O)OC)C(C)(C)C(F)(F)F)OC(=O)CN(C)C)C(C)(C)C(F)(F)F` [Example 10, (2S,3S)-1-(1-(4-(1-(difluoromethyl)-1H-pyrazol-3-yl)-2,6-difluorobenzyl)-2-((S)-4,4,4-trifluoro-2-((methoxycarbonyl)amino)-3,3-dimethylbutanoyl)hydrazinyl)-4-(4-((2-(8-(oxetan-3-yl)-3,8-diazabicyclo[3.2.1]octan-3-yl)pyrimidin-5-yl)ethynyl)phenyl)-3-((S)-4,4,4-trifluoro-2-((methoxycarbonyl)amino)-3,3-dimethylbutanamido)butan-2-yl dimethylglycinate]: the solubility at 24 h was 79.3 µM (≈ 98.4 µg/mL) in data set [2] (setting [6]) and less than 1 µM in data set [2] (setting [7]).

In the case of `COC(=O)N[C@H](C(=O)N[C@@H](Cc1ccc(C#Cc2cnc(N3CC4CCC(C3)N4C3COC3)nc2)cc1)[C@H](CN(Cc1c(F)cc(-c2ccn(C(F)F)n2)cc1F)NC(=O)[C@@H](NC(=O)OC)C(C)(C)C(F)(F)F)OC(=O)CCC[N+](C)(C)C)C(C)(C)C(F)(F)F` [Example 7, (5S,10S)-8-(4-(1-(difluoromethyl)-1H-pyrazol-3-yl)-2,6-difluorobenzyl)-N,N,N-trimethyl-10-((1 S)-2-(4-((2-(8-(oxetan-3-yl)-3,8-diazabicyclo[3.2.1]octan-3-yl)pyrimidin-5-yl)ethynyl)phenyl)-1-((S)-4,4,4-trifluoro-2-((methoxycarbonyl)amino)-3,3-dimethylbutanamido)ethyl)-3,6,2-trioxo-5-(1,1,1-trifluoro-2-methylpropan-2-yl)-2,11-dioxa-4,7,8-triazapentadecan-15-aminium 2,2,2-trifluoroacetate], in data set [1] (Human immunodeficiency virus 1, IIIB, MT4, 120 h), the EC50 is 247 nM.

For the compound `COC(=O)N[C@H](C(=O)N[C@@H](Cc1ccc(C#Cc2ccc(N3CC4CCC(C3)N4C3COC3)nc2)cc1)[C@H](CN(Cc1c(F)cc(-c2ccn(C(F)F)n2)cc1F)NC(=O)[C@@H](NC(=O)OC)C(C)(C)C(F)(F)F)OC(=O)OCOP(=O)(O)O)C(C)(C)C(F)(F)F` [Example 13, methyl ((5S,10S,11S,14S)-8-(4-(1-(difluoromethyl)-1H-pyrazol-3-yl)-2,6-difluorobenzyl)-16,16,16-trifluoro-15,15-dimethyl-11-(4-((6-(8-(oxetan-3-yl)-3,8-diazabicyclo[3.2.1]octan-3-yl)pyridin-3-yl)ethynyl)benzyl)-3,6,13-trioxo-10-((((phosphonooxy)methoxy)carbonyl)oxy)-5-(1,1,1-trifluoro-2-methylpropan-2-yl)-2-oxa-4,7,8,12-tetraazahexadecan-14-yl)carbamate], the solubility at 24 h in data set [2] (setting [6]) was 67.4 µM (≈ 88.2 µg/mL); in data set [2] (setting [7]), less than 1 µM.

With `COC(=O)N[C@H](C(=O)N[C@@H](Cc1ccc(C#Cc2cnc(N3CC4CCC(C3)N4C3COC3)nc2)cc1)[C@H](CN(Cc1c(F)cc(-c2ccn(C(F)F)n2)cc1F)NC(=O)[C@@H](NC(=O)OC)C(C)(C)C(F)(F)F)OC(=O)[C@@H](N)CCCCN)C(C)(C)C(F)(F)F` [Example 9, (2S,3S)-1-(1-(4-(1-(difluoromethyl)-1H-pyrazol-3-yl)-2,6-difluorobenzyl)-2-((S)-4,4,4-trifluoro-2-((methoxycarbonyl)amino)-3,3-dimethylbutanoyl)hydrazinyl)-4-(4-((2-(8-(oxetan-3-yl)-3,8-diazabicyclo[3.2.1]octan-3-yl)pyrimidin-5-yl)ethynyl)phenyl)-3-((S)-4,4,4-trifluoro-2-((methoxycarbonyl)amino)-3,3-dimethylbutanamido)butan-2-yl L-lysinate], in data set [1] (setting [5]), the EC50 turned out to be 20.6 nM. Also, the solubility at 24 h in data set [2] (setting [6]) is 86.8 µM (≈ 111 µg/mL); in data set [2] (setting [7]) it was 6.8 µM (≈ 8.73 µg/mL).

On to `COC(=O)N[C@H](C(=O)N[C@@H](Cc1ccc(C#Cc2cnc(N3CC4CCC(C3)N4C3COC3)nc2)cc1)[C@H](CN(Cc1c(F)cc(-c2ccn(C(F)F)n2)cc1F)NC(=O)[C@@H](NC(=O)OC)C(C)(C)C(F)(F)F)OC(=O)[C@H](C(C)C)N(C)C)C(C)(C)C(F)(F)F` [Example 4, (2S,3S)-1-(1-(4-(1-(difluoromethyl)-1H-pyrazol-3-yl)-2,6-difluorobenzyl)-2-((S)-4,4,4-trifluoro-2-((methoxycarbonyl)amino)-3,3-dimethylbutanoyl)hydrazinyl)-4-(4-((2-(8-(oxetan-3-yl)-3,8-diazabicyclo[3.2.1]octan-3-yl)pyrimidin-5-yl)ethynyl)phenyl)-3-((S)-4,4,4-trifluoro-2-((methoxycarbonyl)amino)-3,3-dimethylbutanamido)butan-2-yl dimethyl-L-valinate], for which the half-maximal effective concentration (EC50) in data set [1] (setting [5]) stood at 5710 nM. Also, the figures for the solubility at 24 h in data set [2] (setting [6]) and in data set [2] (setting [7]) were 99.2 µM (≈ 127 µg/mL) and less than 1 µM, respectively.

On to `COC(=O)N[C@H](C(=O)N[C@@H](Cc1ccc(C#Cc2cnc(N3CC4CCC(C3)N4C3COC3)nc2)cc1)[C@H](CN(Cc1c(F)cc(-c2ccn(C(F)F)n2)cc1F)NC(=O)[C@@H](NC(=O)OC)C(C)(C)C(F)(F)F)OC(C)=O)C(C)(C)C(F)(F)F` [Example 3, (5S,10S,11S,14S)-8-(4-(1-(difluoromethyl)-1H-pyrazol-3-yl)-2,6-difluorobenzyl)-11-(4-((2-(8-(oxetan-3-yl)-3,8-diazabicyclo[3.2.1]octan-3-yl)pyrimidin-5-yl)ethynyl)benzyl)-3,6,13,16-tetraoxo-5,14-bis(1,1,1-trifluoro-2-methylpropan-2-yl)-2,17-dioxa-4,7,8,12,15-pentaazaoctadecan-10-yl acetate], for which, in data set [1] (setting [5]), the EC50 stood at 603 nM. Moreover, the values for the solubility at 24 h in data set [2] (setting [6]) and in data set [2] (setting [7]) were 25.2 µM and less than 1 µM, respectively.
